From US9358276B2, “Methods of diagnosing and treating small intestinal bacterial overgrowth (SIBO) and SIBO-related conditions” (Cedars-Sinai Medical Center, priority 1999, dated 2016) come the findings set out here.

For experiment [1], the system named is release of 5-HT from the proximal gut. Nature of the experiment: 5-HT released by the proximal gut (ELISA of mid-gut fistula output). It is filed as in vivo, dog. To be noted: for amount of 5-HT released by the proximal gut: n=1. How it is done:
To test the hypothesis that fat in the distal gut causes the release of 5-HT in the proximal gut, the amount of 5-HT collected from the output of the mid-gut fistula (proximal gut 5-HT) over a 90-minute period of buffer perfusion through both the duodenal and mid-gut fistulas (2 mL/min); buffer (control) or oleate (60 mM) was administered to the distal gut (n=1). The amount of 5-HT was determined using an ELISA kit specific for 5-HT (Sigma; Graham-Smith, D. G., The carcinoid syndrome, In: Topics in Gastroenterology, Truclove, S. C. and Lee, E. (eds.), Blackwells, London, p. 275 [1977]; Singh, S. M. et al., Concentrations of serotonin in plasma-a test for appendicitis?, Clin. Chem. 34:2572-2574 [1988]). The amount of 5-HT released by the proximal gut increased in response to fat in the distal gut from 100 μg in the control (buffer minus oleate) to 338 μg (buffer plus oleate to distal gut), showing that 5-HT is released in the proximal gut in response to fat in the distal gut. Thus, the release of 5-HT by the proximal gut can serve as a relayed signal for fat in the distal gut. The relayed release of 5-HT in the proximal gut in response to fat in the distal gut is consistent with Example 14(2), showing that slowing of intestinal transit by fat depends on an efferent 5-HT-mediated pathway to the proximal gut.
To test the hypothesis that 5-HT in the distal gut causes the release of 5-HT in the proximal gut, the amount of 5-HT collected from the output at the mid-gut fistula (Proximal gut 5-HT) over a 90-minute period of buffer perfusion through both the duodenal and mid-gut fistulas (2 mL/min each) was compared in the presence or absence of 5-HT (0.05 mg/kg/h) administered to the distal gut (n=1). 5-HT concentration was determined using an ELISA kit specific for 5-HT (Sigma). The amount of 5-HT released by the proximal gut increased from 156 μg in the control (minus distal 5-HT) to 450 μg (plus 5-HT to distal gut), implying that 5-HT is released by the proximal gut in response to 5-HT in the distal gut. Thus, the release of 5-HT by the proximal gut can serve as a relayed signal for distal gut 5-HT. This relayed release of 5-HT in the proximal gut explains the results of Example 14(6) showing that the slowing of intestinal transit by distal gut 5-HT was abolished by ondansetron in the proximal gut (efferent limb of response) as well as in the distal gut (afferent limb of response).
To test the hypothesis that the proximal gut releases 5-HT in response to lipid in the distal gut, we compared the amount of 5-HT in the output of the midgut fistula (i.e., proximal gut 5-HT) with buffered saline (control) or oleate in the distal gut. The amount of 5-HT collected over 90 min was measured using a 5-HT-specific ELISA test kit, as described herein above. Four dogs were tested.
The amount of 5-HT released from the proximal gut in response to intravenous PYY or buffered saline (Control) during buffer perfusion (2 mL/min over 90 minutes) through both the duodenal and mid-gut fistulas was measured to test the hypothesis that intravenous PYY (0.8 mg/kg/h) causes the release of 5-HT in the proximal gut. 5-HT was measured as in Example 14(9) above. The amount of 5-HT released by the proximal gut increased from 140.1 μg (Control) to 463.1 μg in response to intravenous PYY.
(In an ELISA, binding on a coated surface is turned into a signal by an enzyme label.)

The next experiment concerns intestinal transit. Nature of the experiment: Intestinal transit in multi-fistulated dogs, cumulative % recovery of 99mTc-DTPA. It is filed as in vivo, dog. An outline of the steps: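 Fistulated mongrel dogs (~25 kg) had the ~150 cm segment between duodenal and mid-gut fistulas isolated by occluding catheters and perfused at 2 mL/min with buffer plus test agent (some given i.v.). About 20 μCi 99mTc-DTPA was given as a bolus at 60 min of a 90-min perfusion. Mid-gut output was collected every 5 min for 30 min, gamma-counted, and reported as cumulative % recovery.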

The next experiment concerns SIBO. Nature of the experiment: Case: multiple sclerosis with SIBO, neomycin. The format is in vivo, human. To be noted: one patient. The source says: A suspected diagnosis of multiple sclerosis had been made by a neurologist was based on various neuropathies of the peripheral nervous system, including numbness, tingling, and weakness in the lower extremities, but this subject also had associated bloating, gas, distension and alteration in bowel habits. The subject also complained of a significant fatigue and nausea. The subject underwent LBHT, which detected SIBO. […] They no longer had numbness or tingling in the hands or feet and was functioning quite well.

On to `CCCCCCCC/C=C\CCCCCCCC(=O)[O-].[Na+]` [oleate, sodium oleate], for which the “amount of 5-HT released by the proximal gut” value came out at 509.8 µg in experiment [1] (60 mM oleate to distal gut without intravenous PYY) and 338 µg in experiment [1] (60 mM oleate to distal gut, 90 min, control 100 μg). Moreover, the “amount of proximal gut 5-HT” value in experiment [1] (oleate in distal gut, 90 min, buffer 82.7±20.53 ng, four dogs) was determined as 211.75 ± 35.44 ng. For the same molecule, the “proximal intestinal transit, cumulative % marker recovered” value with intestinal transit (60 mM oleate distal gut, Saline (i.v.), Buffer Control 70.11 ± 6.51, five dogs) came out at 26.62 ± 5.36%. In addition, the marker recovery worked out at 41.6±4.6% in the experiment with intestinal transit (60 mM oleate in proximal gut + normal saline (jejunal brake), n=3); 30.0±3.6% in the experiment with intestinal transit (60 mM oleate in proximal gut with 0 mg naloxone, n=7); 25.8±5.2% with intestinal transit (60 mM oleate into distal gut, Buffer Control 79.7±5.8%, n=2 dogs); 24.1% with intestinal transit (60 mM oleate to distal gut (ileal brake), Buffer Control 81.2%); 22.9±3.8% with intestinal transit (ileal brake (oleate in distal gut, buffer in proximal gut), control 76.3±3.1%, four dogs); 20±1.8% in the experiment with intestinal transit (ileal brake, 60 mM oleate into distal gut, n=2). The marker recovery in the experiment on intestinal transit (ileal brake, 60 mM oleate to distal gut, no naloxone, n=11) worked out at 34.6±4.8%.
For neomycin, the “time to relapse of symptoms after initial response” value in the experiment with SIBO is listed as 6-8 weeks. In the experiment on SIBO (first treatment), the “nausea, fatigue, bloating, gas distension and alteration in bowel habits” value is “complete resolution”; the neuropathies result is “dramatic improvement and resolution”. For the same molecule, the symptoms upon re-treatment entry in the experiment on SIBO (re-treatment 500 mg twice daily for 10 days) is recorded as “complete resolution of their symptoms”. The “eradication of bacterial overgrowth” value in the experiment with SIBO (500 mg twice daily for 10 days) was “at least partially eradicated”.
